Test results as given in PubChem BioAssay AID2060498 (Molecular Pharmacology Branch, DTP, NCI, 2025).

System: 171881-019-R-J1-PDC tumor spheroids, viability
Test: Anticancer human tumor 171881-019-R-J1-PDC patient-derived invasive breast carcinoma cell line growth inhibition [GQUAD]
Details: spheroids with HUVEC and MSC; for IC50: curve of first compound; for viability, T/C: stronger effect = lower value
In short: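 Multi-cell-type spheroids of tumor cells with HUVEC and mesenchymal stem cells, treated with drug combinations. Concentrations descend in half-log steps from near clinical Cmax, or from 10 microM where Cmax is unknown; viability read-out.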

[1] = second compound 0.0316 µM, first compound 0.0316 µM
[2] = second compound 0.0316 µM, first compound 0.316 µM
[3] = second compound 0.1 µM, first compound 0.0316 µM
[4] = second compound 0.1 µM, first compound 0.316 µM
[5] = second compound 0.316 µM, first compound 0.0316 µM
[6] = second compound 0.316 µM, first compound 0.316 µM
[7] = second compound 1 µM, first compound 0.0316 µM
[8] = second compound 1 µM, first compound 0.316 µM
[9] = second compound 3.16 µM, first compound 0.0316 µM
[10] = second compound 3.16 µM, first compound 0.316 µM
[11] = second compound 10 µM, first compound 0.0316 µM
[12] = second compound 10 µM, first compound 0.316 µM
[13] = second compound 0.0316 µM, first compound 0.000999 µM
[14] = second compound 0.0316 µM, first compound 0.00316 µM
[15] = second compound 0.0316 µM, first compound 0.00999 µM
[16] = second compound 0.0316 µM, first compound 0.0999 µM
[17] = second compound 0.1 µM, first compound 0.000999 µM
[18] = second compound 0.1 µM, first compound 0.00316 µM
[19] = second compound 0.1 µM, first compound 0.00999 µM
[20] = second compound 0.1 µM, first compound 0.0999 µM
[21] = second compound 0.316 µM, first compound 0.000999 µM
[22] = second compound 0.316 µM, first compound 0.00316 µM
[23] = second compound 0.316 µM, first compound 0.00999 µM
[24] = second compound 0.316 µM, first compound 0.0999 µM
[25] = second compound 1 µM, first compound 0.000999 µM
[26] = second compound 1 µM, first compound 0.00316 µM
[27] = second compound 1 µM, first compound 0.00999 µM
[28] = second compound 1 µM, first compound 0.0999 µM
[29] = second compound 3.16 µM, first compound 0.000999 µM
[30] = second compound 3.16 µM, first compound 0.00316 µM
[31] = second compound 3.16 µM, first compound 0.00999 µM
[32] = second compound 3.16 µM, first compound 0.0999 µM
[33] = second compound 10 µM, first compound 0.000999 µM
[34] = second compound 10 µM, first compound 0.00316 µM
[35] = second compound 10 µM, first compound 0.00999 µM
[36] = second compound 10 µM, first compound 0.0999 µM
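Also: spheroids exposed to compounds for 7 days.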
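For viability, T/C in this document: 100% = DMSO vehicle control viability.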

## CCCS(=O)(=O)Nc1ccc(F)c(C(=O)c2c[nH]c3ncc(-c4ccc(Cl)cc4)cc23)c1F + Cc1cnc(CNC(=O)c2c(=O)c3ccc(N4CCCN(C)CC4)nc3n3c2sc2ccccc23)cn1
Second compound 0.0316 µM
  IC50: > 10000 nM
Second compound 0.1 µM
  IC50: > 10000 nM
Second compound 0.316 µM
  IC50: > 10000 nM
Second compound 1 µM
  IC50: > 10000 nM
Second compound 3.16 µM
  IC50: > 10000 nM
Second compound 10 µM
  IC50: > 10000 nM
[1]
  viability, T/C: 104%
Second compound 0.0316 µM, first compound 0.1 µM
  viability, T/C: 95.3%
[2]
  viability, T/C: 108%
Second compound 0.0316 µM, first compound 1 µM
  viability, T/C: 112%
Second compound 0.0316 µM, first compound 3.16 µM
  viability, T/C: 117%
Second compound 0.0316 µM, first compound 10 µM
  viability, T/C: 69.3%
[3]
  viability, T/C: 83%
Second compound 0.1 µM, first compound 0.1 µM
  viability, T/C: 95.2%
[4]
  viability, T/C: 90.4%
Second compound 0.1 µM, first compound 1 µM
  viability, T/C: 102%
Second compound 0.1 µM, first compound 3.16 µM
  viability, T/C: 92.2%
Second compound 0.1 µM, first compound 10 µM
  viability, T/C: 54.9%
[5]
  viability, T/C: 78%
Second compound 0.316 µM, first compound 0.1 µM
  viability, T/C: 78.8%
[6]
  viability, T/C: 81.9%
Second compound 0.316 µM, first compound 1 µM
  viability, T/C: 78.7%
Second compound 0.316 µM, first compound 3.16 µM
  viability, T/C: 91.9%
Second compound 0.316 µM, first compound 10 µM
  viability, T/C: 52.1%
[7]
  viability, T/C: 72.1%
Second compound 1 µM, first compound 0.1 µM
  viability, T/C: 66.5%
[8]
  viability, T/C: 79.5%
Second compound 1 µM, first compound 1 µM
  viability, T/C: 69.5%
Second compound 1 µM, first compound 3.16 µM
  viability, T/C: 82.3%
Second compound 1 µM, first compound 10 µM
  viability, T/C: 59.6%
[9]
  viability, T/C: 63.9%
Second compound 3.16 µM, first compound 0.1 µM
  viability, T/C: 61.8%
[10]
  viability, T/C: 68.5%
Second compound 3.16 µM, first compound 1 µM
  viability, T/C: 66.6%
Second compound 3.16 µM, first compound 3.16 µM
  viability, T/C: 67.5%
Second compound 3.16 µM, first compound 10 µM
  viability, T/C: 53%
[11]
  viability, T/C: 59.9%
Second compound 10 µM, first compound 0.1 µM
  viability, T/C: 62.1%
[12]
  viability, T/C: 59.4%
Second compound 10 µM, first compound 1 µM
  viability, T/C: 68%
Second compound 10 µM, first compound 3.16 µM
  viability, T/C: 68.4%
Second compound 10 µM, first compound 10 µM
  viability, T/C: 51.8%

## CC[C@@]1(O)C(=O)OCc2c1cc1n(c2=O)Cc2cc3c(CN(C)C)c(O)ccc3nc2-1 + Cc1cnc(CNC(=O)c2c(=O)c3ccc(N4CCCN(C)CC4)nc3n3c2sc2ccccc23)cn1
Second compound 0.0316 µM
  IC50: 83.8 nM
Second compound 0.1 µM
  IC50: 141 nM
Second compound 0.316 µM
  IC50: > 316 nM
Second compound 1 µM
  IC50: > 316 nM
Second compound 3.16 µM
  IC50: > 316 nM
Second compound 10 µM
  IC50: > 316 nM
[13]
  viability, T/C: 96.2%
[14]
  viability, T/C: 93.7%
[15]
  viability, T/C: 89.8%
[1]
  viability, T/C: 72.3%
[16]
  viability, T/C: 45.2%
[2]
  viability, T/C: 40.8%
[17]
  viability, T/C: 89.5%
[18]
  viability, T/C: 78.6%
[19]
  viability, T/C: 76.7%
[3]
  viability, T/C: 64.1%
[20]
  viability, T/C: 50%
[4]
  viability, T/C: 45.8%
[21]
  viability, T/C: 74%
[22]
  viability, T/C: 73.1%
[23]
  viability, T/C: 68.9%
[5]
  viability, T/C: 60.8%
[24]
  viability, T/C: 61.3%
[6]
  viability, T/C: 50.9%
[25]
  viability, T/C: 71.6%
[26]
  viability, T/C: 63.2%
[27]
  viability, T/C: 65.7%
[7]
  viability, T/C: 60.7%
[28]
  viability, T/C: 56.4%
[8]
  viability, T/C: 50.7%
[29]
  viability, T/C: 63.1%
[30]
  viability, T/C: 59.9%
[31]
  viability, T/C: 62.7%
[9]
  viability, T/C: 57%
[32]
  viability, T/C: 58.4%
[10]
  viability, T/C: 50.7%
[33]
  viability, T/C: 58.5%
[34]
  viability, T/C: 54.4%
[35]
  viability, T/C: 54.8%
[11]
  viability, T/C: 59.7%
[36]
  viability, T/C: 60.5%
[12]
  viability, T/C: 48%

## Cn1ncnc1[C@H]1c2n[nH]c(=O)c3cc(F)cc(c23)N[C@@H]1c1ccc(F)cc1 + Cc1cnc(CNC(=O)c2c(=O)c3ccc(N4CCCN(C)CC4)nc3n3c2sc2ccccc23)cn1
Second compound 0.0316 µM
  IC50: > 316 nM
Second compound 0.1 µM
  IC50: > 316 nM
Second compound 0.316 µM
  IC50: > 316 nM
Second compound 1 µM
  IC50: > 316 nM
Second compound 3.16 µM
  IC50: > 316 nM
Second compound 10 µM
  IC50: > 316 nM
[13]
  viability, T/C: 94.5%
[14]
  viability, T/C: 86.1%
[15]
  viability, T/C: 95.2%
[1]
  viability, T/C: 87.2%
[16]
  viability, T/C: 79.1%
[2]
  viability, T/C: 73.6%
[17]
  viability, T/C: 82.2%
[18]
  viability, T/C: 83.2%
[19]
  viability, T/C: 82.4%
[3]
  viability, T/C: 76%
[20]
  viability, T/C: 63.3%
[4]
  viability, T/C: 59.9%
[21]
  viability, T/C: 73.7%
[22]
  viability, T/C: 74.3%
[23]
  viability, T/C: 67.5%
[5]
  viability, T/C: 63.5%
[24]
  viability, T/C: 64.4%
[6]
  viability, T/C: 65.1%
[25]
  viability, T/C: 68%
[26]
  viability, T/C: 59.8%
[27]
  viability, T/C: 70.4%
[7]
  viability, T/C: 63.5%
[28]
  viability, T/C: 63.5%
[8]
  viability, T/C: 61.9%
[29]
  viability, T/C: 61.3%
[30]
  viability, T/C: 60.1%
[31]
  viability, T/C: 61.2%
[9]
  viability, T/C: 64.7%
[32]
  viability, T/C: 65.1%
[10]
  viability, T/C: 59.1%
[33]
  viability, T/C: 58.6%
[34]
  viability, T/C: 63%
[35]
  viability, T/C: 60.4%
[11]
  viability, T/C: 59.9%
[36]
  viability, T/C: 65.9%
[12]
  viability, T/C: 60.4%
